Measurements reported in ChEMBL document CHEMBL3525960, “Role of catechol-O-methyltransferase in the disposition of luteolin in rats” (Drug Metab Dispos, 2011).

How the values were obtained:
[1] = AUC (0 to t) in Sprague-Dawley rat treated with luteolin at 6.5 mg/kg, iv; type: ADME, organism-based; design: dose 6.5 mg/kg, route intravenous; settings: plasma
[2] = AUC (0 to infinity) in Sprague-Dawley rat treated with luteolin at 6.5 mg/kg, iv; type: ADME, organism-based; design: time infinity, dose 6.5 mg/kg, route intravenous; settings: plasma
[3] = Mean residence time (0 to t) in Sprague-Dawley rat treated with luteolin at 6.5 mg/kg, iv; type: ADME, organism-based; design: dose 6.5 mg/kg, route intravenous; settings: in vivo
[4] = Mean residence time (0 to infinity) in Sprague-Dawley rat treated with luteolin at 6.5 mg/kg, iv; type: ADME, organism-based; design: dose 6.5 mg/kg, route intravenous; settings: in vivo
[5] = Half life in Sprague-Dawley rat treated with luteolin at 6.5 mg/kg, iv; type: ADME, organism-based; design: dose 6.5 mg/kg, route intravenous; settings: in vivo
[6] = test system: Rattus norvegicus; assay: Clearance in Sprague-Dawley rat treated with luteolin at 6.5 mg/kg, iv; type: ADME, organism-based; design: dose 6.5 mg/kg, route intravenous; settings: in vivo
[7] = Volume of distribution in Sprague-Dawley rat treated with luteolin at 6.5 mg/kg, iv; type: ADME, organism-based; design: dose 6.5 mg/kg, route intravenous; settings: in vivo
[8] = Cmax in Sprague-Dawley rat treated with luteolin at 6.5 mg/kg, iv; type: ADME, organism-based; design: dose 6.5 mg/kg, route intravenous; settings: in vivo
[9] = Drug excretion in Sprague-Dawley rat urine treated with luteolin at 6.5 mg/kg, iv after 24 hrs; type: ADME, organism-based; design: dose 6.5 mg/kg, route intravenous; settings: read-out: Drug excretion
[10] = Drug excretion in Sprague-Dawley rat urine treated with luteolin at 6.5 mg/kg, iv after 24 hrs co-treated with COMT inhibitor entacapone; type: ADME, organism-based; design: dose 6.5 mg/kg, route intravenous; settings: read-out: Drug excretion
[11] = Drug recovery in Sprague-Dawley rat urine assessed as retention time treated with luteolin at 6.5 mg/kg, iv by reverse-phase HPLC method; type: ADME, organism-based; design: dose 6.5 mg/kg, route intravenous; settings: in vivo
[12] = test system: Liver; assay: Drug metabolism in Sprague-Dawley rat liver homogenate treated with luteolin at 20 uM after 20 to 60 mins; type: ADME, tissue-based; settings: tissue homogenate
[13] = test system: Kidney; assay: Drug metabolism in Sprague-Dawley rat kidney homogenate treated with luteolin at 20 uM after 20 to 60 mins; type: ADME, tissue-based; settings: tissue homogenate
[14] = test system: Lung; assay: Drug metabolism in Sprague-Dawley rat lung homogenate treated with luteolin at 20 uM after 20 to 60 mins; type: ADME, tissue-based; settings: tissue homogenate
[15] = test system: Small intestine; assay: Drug metabolism in Sprague-Dawley rat small intestine homogenate treated with luteolin at 20 uM after 20 to 60 mins; type: ADME, tissue-based; settings: tissue homogenate
[16] = Drug metabolism in Sprague-Dawley rat erythrocytes homogenate treated with luteolin at 20 uM after 20 to 60 mins; type: ADME, cell-based; settings: erythrocyte
[17] = test system: Liver; assay: Drug metabolism in Sprague-Dawley rat liver homogenate treated with luteolin at 20 uM after 20 to 60 mins in presence of COMT inhibitor entacapone; type: ADME, tissue-based; settings: tissue homogenate
[18] = test system: Kidney; assay: Drug metabolism in Sprague-Dawley rat kidney homogenate treated with luteolin at 20 uM after 20 to 60 mins in presence of COMT inhibitor entacapone; type: ADME, tissue-based; settings: tissue homogenate
[19] = test system: Lung; assay: Drug metabolism in Sprague-Dawley rat lung homogenate treated with luteolin at 20 uM after 20 to 60 mins in presence of COMT inhibitor entacapone; type: ADME, tissue-based; settings: tissue homogenate
[20] = test system: Small intestine; assay: Drug metabolism in Sprague-Dawley rat small intestine homogenate treated with luteolin at 20 uM after 20 to 60 mins in presence of COMT inhibitor entacapone; type: ADME, tissue-based; settings: tissue homogenate
[21] = Drug metabolism in Sprague-Dawley rat erythrocytes homogenate treated with luteolin at 20 uM after 20 to 60 mins in presence of COMT inhibitor entacapone; type: ADME, cell-based; settings: erythrocyte
[22] = test system: Liver microsome; assay: Stability in Sprague-Dawley rat liver microsomes at 10 uM after 10 to 30 mins by HPLC analysis; type: ADME

AUC(0-t) [1]: 427 ng·h/mL
AUC(0-inf) [2]: 466 ng·h/mL
MRT last [3]: 35.8 min
MRT inf [4]: 46 min
half-life [5]: 30.8 min
clearance [6]: 238 mL/min/kg
Vd [7]: 10.3 L/kg
Cmax [8]: 560 ng/mL
dose excreted at 24 h [9]: 1.22%
dose excreted at 24 h [10]: 0.254%
Retention_time [11]: 30.85 min
Drug metabolism [12]: metabolite_detected
Drug metabolism [13]: metabolite_detected
Drug metabolism [14]: metabolite_detected
Drug metabolism [15]: metabolite_detected
Drug metabolism [16]: metabolite_detected
Drug metabolism [17]: metabolite_not_detected
Drug metabolism [18]: metabolite_not_detected
Drug metabolism [19]: metabolite_not_detected
Drug metabolism [20]: metabolite_not_detected
Drug metabolism [21]: metabolite_not_detected
Stability [22]: Unstable
Compound: COc1ccc(-c2cc(=O)c3c(O)cc(O)cc3o2)cc1O [DIOSMETIN]
